Source: DBAASP
In brackets after ≈: the same amount, converted by molar mass. Blank lines part the entries; values can stand above or below the molecule they belong to.

How the values were obtained:
Assay in all cases: ≥ marks a high value that may be exact or a test limit, other limits are often not marked, values filed in µg/mL are converted to µM
[1] = test system: Bacillus megaterium ATCC 10778
[2] = test system: Escherichia coli SBS 363
[3] = test system: Serratia marcescens ATCC 4112
[4] = test system: Pseudomonas aeruginosa ATCC 27853
[5] = test system: Candida tropicalis IOC 4560
[6] = test system: Enterobacter cloacae beta-12
[7] = test system: Bacillus subtilis ATCC 6633
[8] = test system: Staphylococcus aureus ATCC 29213
[9] = test system: Micrococcus luteus A270
[10] = test system: Candida albicans MDM8
[11] = test system: Listeria innocua
[12] = test system: Salmonella enterica subsp. enterica serovar Enteritidis
[13] = test system: Escherichia coli
[14] = test system: Staphylococcus aureus SH1000
[15] = test system: Acinetobacter baumannii ATCC 7978
[16] = test system: Staphylococcus aureus ATCC 29231
[17] = test system: Klebsiella pneumoniae WGLW2
[18] = test system: Staphylococcus aureus MW2
[19] = test system: Klebsiella aerogenes ATCC 13048
[20] = test system: Candida albicans ATCC 10231
[21] = test system: Salmonella enterica subsp. arizonae ATCC 13314
[22] = test system: Pseudomonas aeruginosa H1001
[23] = test system: Escherichia coli DH5alpha

MIC [1]: 3.1 µM (≈ 4.7 µg/mL)
MIC [2]: 6.3 µM (≈ 9.54 µg/mL)
MIC [3]: 0.4 µM (≈ 0.606 µg/mL)
MIC [4]: > 50 µM
MIC [5]: 12.5 µM (≈ 18.9 µg/mL)
MIC [6]: ≥ 50 µM
MIC [7]: 1.6 µM (≈ 2.42 µg/mL)
MIC [8]: 3.1 µM (≈ 4.7 µg/mL)
MIC [9]: 0.8 µM (≈ 1.21 µg/mL)
MIC [10]: ≥ 50 µM
SMILES: CC(C)C[C@H](NC(=O)[C@H](C)NC(=O)CNC(=O)[C@H](CC(C)C)NC(=O)[C@@H](N)Cc1ccccc1)C(=O)N[C@@H](Cc1c[nH]c2ccccc12)C(=O)N[C@@H](CC(N)=O)C(=O)N[C@H](C(=O)N[C@@H](C)C(=O)N[C@@H](CCCCN)C(=O)N[C@@H](CO)C(=O)N[C@@H](Cc1ccc(O)cc1)C(=O)N[C@@H](Cc1ccccc1)C(N)=O)C(C)C [FLGALWNVAKSYF]

MIC [11]: ≥ 73 µM
MIC [12]: ≥ 73 µM
MIC [9]: ≥ 85 µM
MIC [13]: 73 µM (≈ 201 µg/mL)
SMILES: CC(C)C[C@H](NC(=O)[C@H](C)NC(=O)[C@H](CC(N)=O)NC(=O)[C@H](C)NC(=O)[C@@H](NC(=O)CNC(=O)[C@H](C)NC(=O)[C@@H](NC(=O)[C@@H](NC(=O)[C@H](CCCCN)NC(=O)[C@H](CCC(N)=O)NC(=O)[C@H](Cc1ccccc1)NC(=O)[C@H](CC(=O)O)NC(=O)[C@H](C)NC(=O)[C@H](CCC(N)=O)NC(=O)[C@H](CC(C)C)NC(=O)[C@@H](NC(=O)[C@@H]1CCCN1C(=O)[C@@H](NC(=O)[C@@H](N)Cc1ccccc1)[C@@H](C)O)C(C)C)C(C)C)C(C)C)C(C)C)C(=O)N[C@@H](C)C(=O)N[C@@H](Cc1cnc[nH]1)C(=O)N[C@@H](CCCN=C(N)N)C(=O)N[C@@H](Cc1ccc(O)cc1)C(=O)N[C@@H](Cc1cnc[nH]1)C(=O)O [FTPVLQADFQKVVAGVANALAHRYH]

MIC [14]: ≥ 100 µM
SMILES: CC(C)C[C@H](NC(=O)CN)C(=O)N[C@@H](Cc1ccccc1)C(=O)N[C@@H](CC(=O)O)C(=O)N[C@@H](CC(C)C)C(=O)N[C@@H](CC(C)C)C(=O)N[C@@H](CCCCN)C(=O)N[C@@H](CCCCN)C(=O)N[C@@H](CC(C)C)C(=O)N[C@@H](CC(C)C)C(=O)N[C@@H](CCCCN)C(=O)N[C@@H](CC(C)C)C(=O)N[C@@H](CC(C)C)C(=O)N[C@@H](CCCCN)C(N)=O [GLFDLLKKLLKLLK]

SMILES: CC[C@H](C)[C@H](NC(=O)[C@H](Cc1c[nH]c2ccccc12)NC(=O)[C@H](CCCCN)NC(=O)[C@@H](N)CC(C)C)C(=O)NCC(=O)N[C@@H](CCCCN)C(=O)N[C@@H](Cc1c[nH]c2ccccc12)C(=O)N[C@H](C(=O)N[C@@H](Cc1c[nH]c2ccccc12)C(=O)N[C@@H](CCCN=C(N)N)C(=O)N[C@H](C(=O)NCC(=O)O)C(C)C)[C@@H](C)CC [LKWIGKWIWRVG]
MIC [15]: ≥ 83 µM
MIC [16]: ≥ 83 µM
MIC [17]: ≥ 83 µM
MIC [18]: ≥ 41.5 µM

MIC [19]: ≥ 58.6 µM
MIC [15]: 14.7 µM (≈ 32 µg/mL)
MIC [20]: 29.3 µM (≈ 64 µg/mL)
MIC [16]: 14.7 µM (≈ 32 µg/mL)
MIC [18]: 14.7 µM (≈ 32 µg/mL)
SMILES: CC[C@H](C)[C@H](NC(=O)[C@H](CCCCN)NC(=O)[C@H](Cc1c[nH]c2ccccc12)NC(=O)[C@@H](N)CC(C)C)C(=O)NCC(=O)N[C@@H](Cc1c[nH]c2ccccc12)C(=O)N[C@@H](CCCCN)C(=O)N[C@H](C(=O)N[C@@H](Cc1c[nH]c2ccccc12)C(=O)N[C@@H](CCCN=C(N)N)C(=O)N[C@H](C(=O)NCC(=O)N[C@@H](Cc1c[nH]c2ccccc12)C(=O)N[C@@H](CC(N)=O)C(=O)N[C@@H](Cc1c[nH]c2ccccc12)C(=O)N[C@@H](CCCN=C(N)N)C(=O)O)C(C)C)[C@@H](C)CC [LWKIGWKIWRVGWNWR]

MIC [2]: 1.6 µM (≈ 2.01 µg/mL)
MIC [4]: 1.6 µM (≈ 2.01 µg/mL)
MIC [9]: 0.4 µM (≈ 0.502 µg/mL)
MIC [21]: ≥ 50 µM
MIC [10]: 0.4 µM (≈ 0.502 µg/mL)
SMILES: CC[C@H](C)[C@H](NC(=O)[C@H](CC(C)C)NC(=O)[C@H](CO)NC(=O)[C@H](CC(C)C)NC(=O)[C@H](CC(C)C)NC(=O)[C@@H](N)CO)C(=O)N[C@@H](CCCN=C(N)N)C(=O)N[C@@H](CCCCN)C(=O)N[C@@H](CC(C)C)C(=O)N[C@@H](CC(C)C)C(=O)N[C@H](C(N)=O)[C@@H](C)O [SLLSLIRKLLT]

MIC [22]: 0.112 µM (≈ 0.27 µg/mL)
SMILES: CC[C@H](C)[C@H](NC(=O)[C@H](CCCN=C(N)N)NC(=O)[C@H](CCCCN)NC(=O)[C@@H]1CCCN1C(=O)[C@@H]1CCCN1C(=O)[C@H](CCCN=C(N)N)NC(=O)[C@@H]1CCCN1C(=O)[C@H](CCCN=C(N)N)NC(=O)[C@@H]1CCCN1C(=O)[C@H](CC(C)C)NC(=O)[C@H](Cc1ccc(O)cc1)NC(=O)[C@@H]1CCCN1C(=O)[C@@H]1CCCN1C(=O)[C@H](CCCCN)NC(=O)[C@H](CC(=O)O)NC(=O)[C@@H](N)C(C)C)C(=O)N[C@@H](Cc1ccc(O)cc1)C(=O)N[C@@H](CC(N)=O)C(=O)N[C@@H](CCCN=C(N)N)C(=O)NCC(=O)O [VDKPPYLPRPRPPKRIYNRG]

MIC [22]: 0.12 µM (≈ 0.3 µg/mL)
SMILES: CC[C@H](C)[C@H](NC(=O)[C@H](CCCN=C(N)N)NC(=O)[C@H](CCCN=C(N)N)NC(=O)[C@H](CCCN=C(N)N)NC(=O)[C@@H]1CCCN1C(=O)[C@H](CCCN=C(N)N)NC(=O)[C@@H]1CCCN1C(=O)[C@H](CCCN=C(N)N)NC(=O)[C@@H]1CCCN1C(=O)[C@H](CC(C)C)NC(=O)[C@H](Cc1ccc(O)cc1)NC(=O)[C@@H]1CCCN1C(=O)[C@@H]1CCCN1C(=O)[C@H](CCCCN)NC(=O)[C@H](CC(=O)O)NC(=O)[C@@H](N)C(C)C)C(=O)N[C@@H](Cc1ccc(O)cc1)C(=O)N[C@@H](CC(N)=O)C(=O)N[C@@H](CCCN=C(N)N)C(=O)NCC(=O)O [VDKPPYLPRPRPRRRIYNRG]

MIC [11]: 27 µM (≈ 73.7 µg/mL)
MIC [12]: 27 µM (≈ 73.7 µg/mL)
MIC [9]: ≥ 54 µM
MIC [13]: 54 µM (≈ 147 µg/mL)
SMILES: CC(C)C[C@H](NC(=O)[C@@H](N)C(C)C)C(=O)N[C@@H](CO)C(=O)N[C@@H](C)C(=O)N[C@@H](C)C(=O)N[C@@H](CC(=O)O)C(=O)N[C@@H](CCCCN)C(=O)NCC(=O)N[C@@H](CC(N)=O)C(=O)N[C@H](C(=O)N[C@@H](CCCCN)C(=O)N[C@@H](C)C(=O)N[C@@H](C)C(=O)N[C@@H](Cc1c[nH]c2ccccc12)C(=O)NCC(=O)N[C@@H](CCCCN)C(=O)N[C@H](C(=O)NCC(=O)NCC(=O)N[C@@H](Cc1cnc[nH]1)C(=O)N[C@@H](C)C(=O)N[C@@H](C)C(=O)N[C@@H](CCC(=O)O)C(=O)N[C@@H](Cc1ccc(O)cc1)C(=O)NCC(=O)N[C@@H](C)C(=O)N[C@@H](CCC(=O)O)C(=O)N[C@@H](C)C(=O)O)C(C)C)C(C)C [VLSAADKGNVKAAWGKVGGHAAEYGAEA]

MIC [23]: 10 µM (≈ 22 µg/mL)
MIC [14]: 3.16 µM (≈ 6.97 µg/mL)
SMILES: CC[C@H](C)[C@H](NC(=O)[C@H](C)NC(=O)[C@H](CCCCN)NC(=O)[C@@H](NC(=O)[C@H](CC(C)C)NC(=O)[C@H](CCCCN)NC(=O)[C@H](CCCCN)NC(=O)[C@@H](NC(=O)CNC(=O)[C@H](C)NC(=O)[C@H](Cc1ccccc1)NC(=O)[C@H](Cc1ccccc1)NC(=O)[C@H](CCCCN)NC(=O)CNC(=O)[C@@H](N)Cc1c[nH]c2ccccc12)C(C)C)[C@@H](C)O)C(=O)N[C@@H](CC(C)C)C(=O)N[C@@H](C)C(=O)N[C@H](C(=O)N[C@@H](CCCN=C(N)N)C(=O)N[C@@H](C)C(N)=O)C(C)C [WGKFFAGVKKLTKAILAVRA]

MIC [23]: 3.16 µM (≈ 6.88 µg/mL)
MIC [14]: 3.16 µM (≈ 6.88 µg/mL)
SMILES: CC[C@H](C)[C@H](NC(=O)[C@H](C)NC(=O)[C@H](CCCCN)NC(=O)[C@@H](NC(=O)[C@H](CC(C)C)NC(=O)[C@H](CCCCN)NC(=O)[C@H](CCCCN)NC(=O)[C@@H](NC(=O)CNC(=O)[C@H](C)NC(=O)[C@H](Cc1ccccc1)NC(=O)[C@H](Cc1ccccc1)NC(=O)[C@H](CCCCN)NC(=O)CNC(=O)[C@@H](N)Cc1c[nH]c2ccccc12)C(C)C)[C@@H](C)O)C(=O)N[C@@H](CC(C)C)C(=O)NCC(=O)N[C@@H](CCC(=O)O)C(=O)N[C@H](C(=O)N[C@@H](C)C(N)=O)[C@@H](C)CC [WGKFFAGVKKLTKAILGEIA]
